The values that follow come from patent US20230091225A1, “Bifunctional chimeric heterocyclic compounds for targeted degradation of androgen receptors and use thereof” (HINOVA PHARMACEUTICALS INC., priority 2019, published 2023).

In general, inhibition refers to the drop in the measured response relative to a control, in per cent. A high value points to a response far below the control.

The target in the assay is T1, androgen receptor (AR) (Homo sapiens, UniProt P10275).
T1 sequence (P10275 1-920): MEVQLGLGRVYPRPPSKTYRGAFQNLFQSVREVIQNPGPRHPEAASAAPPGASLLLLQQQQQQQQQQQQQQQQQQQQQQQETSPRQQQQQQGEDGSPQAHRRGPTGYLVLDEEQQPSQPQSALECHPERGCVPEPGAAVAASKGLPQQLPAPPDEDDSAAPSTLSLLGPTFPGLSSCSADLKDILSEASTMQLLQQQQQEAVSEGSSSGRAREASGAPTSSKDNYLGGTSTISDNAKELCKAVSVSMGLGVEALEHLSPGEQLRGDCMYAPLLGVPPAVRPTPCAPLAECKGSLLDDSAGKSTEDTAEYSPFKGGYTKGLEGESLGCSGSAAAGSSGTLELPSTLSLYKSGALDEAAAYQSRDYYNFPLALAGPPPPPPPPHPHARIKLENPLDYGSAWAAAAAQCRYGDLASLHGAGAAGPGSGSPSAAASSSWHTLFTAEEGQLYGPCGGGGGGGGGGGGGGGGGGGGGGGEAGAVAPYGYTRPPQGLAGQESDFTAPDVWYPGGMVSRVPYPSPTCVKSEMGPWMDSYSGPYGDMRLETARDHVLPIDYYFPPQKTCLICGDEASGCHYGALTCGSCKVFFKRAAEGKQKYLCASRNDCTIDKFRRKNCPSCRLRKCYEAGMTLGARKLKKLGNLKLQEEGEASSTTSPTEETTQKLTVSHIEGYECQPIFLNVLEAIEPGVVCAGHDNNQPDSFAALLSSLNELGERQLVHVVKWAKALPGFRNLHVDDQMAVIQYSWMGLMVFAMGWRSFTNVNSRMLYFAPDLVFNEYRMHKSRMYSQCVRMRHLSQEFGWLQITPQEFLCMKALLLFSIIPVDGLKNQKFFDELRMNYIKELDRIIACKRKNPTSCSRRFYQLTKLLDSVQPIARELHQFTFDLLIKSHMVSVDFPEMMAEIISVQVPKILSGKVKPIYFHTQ
Kind of assay: Degradation of androgen receptor (AR) protein in VCaP cells by Western blot. Format: cell-based. The settings on record: percentage of degraded AR at 100 nM, VCaP cells, 16 h. In a few lines:
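AR and β-actin levels were read by Western blot with ECL detection, loading 30 μg lysate protein per well. Before lysis, VCaP cells seeded at 5×10^5/well and grown overnight were exposed to compound for 16 h, two wells per concentration, keeping DMSO at 0.1%.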
(A western blot detects proteins with antibodies after separation by electrophoresis.)

On to `N#Cc1ccc(O[C@H]2CC[C@H](NC(=O)c3ccc(N4CC5CN(CC6CN(c7cc8c(cc7F)C(=O)N(C7CCC(=O)NC7=O)C8=O)C6)CC5C4)nn3)CC2)cc1Cl` (stereo partly drawn) [Compound 160], for which the inhibition at 0.1 µM was < 25%. Consider `CC1(C)[C@H](NC(=O)c2ccc(N3CCN(C[C@@H]4[C@H]5CN(c6cc7c(cc6F)C(=O)N(C6CCC(=O)NC6=O)C7=O)C[C@@H]45)CC3)nn2)C(C)(C)[C@H]1Oc1ccc(C#N)c(Cl)c1` (stereo partly drawn) [Compound 101], for which the inhibition at 0.1 µM lay within 25 to 49%. The same measure, in the same setting: the result for `CC1(C)[C@H](NC(=O)c2cnc(N3C[C@@H]4[C@@H](CN5CCN(c6cc7c(cc6F)C(=O)N(C6CCC(=O)NC6=O)C7=O)CC5)[C@@H]4C3)cn2)C(C)(C)[C@H]1Oc1ccc(C#N)c(Cl)c1` (stereo partly drawn) [Compound 182, N-((1r,3R)-3-(3-chloro-4-cyanophenoxy)-2,2,4,4-tetramethylcyclobutyl)-5-((1R,5S,6S)-6-((4-(2-(2,6-dioxopiperidin-3-yl)-6-fluoro-1,3-dioxoisoindolin-5-yl)piperazin-1-yl)methyl)-3-azabicyclo[3.1.0]hexan-3-yl)pyrazine-2-carboxamide] reads 50 to 79%. The compound `N#Cc1ccc(O[C@H]2CC[C@H](NC(=O)c3cnc(N4CCC(N5CC6CN(c7cc8c(cc7F)C(=O)N(C7CCC(=O)NC7=O)C8=O)CC6C5)CC4)cn3)CC2)cc1Cl` (stereo partly drawn) [Compound 64, N-((1r,4r)-4-(3-chloro-4-cyanophenoxy)cyclohexyl)-5-(4-(5-(2-(2,6-dioxopiperidin-3-yl)-6-fluoro-1,3-dioxoisoindolin-5-yl)hexahydropyrrolo[3,4-c]pyrrol-2(1H)-yl)piperidin-1-yl)pyrazine-2-carboxamide] gave an inhibition at 0.1 µM of 50 to 79%. Take `N#Cc1ccc(O[C@H]2CC[C@H](NC(=O)c3cnc(N4CC(CN5CC6CN(c7cc8c(cc7F)C(=O)N(C7CCC(=O)NC7=O)C8=O)CC6C5)C4)nc3)CC2)cc1Cl` (stereo partly drawn) [Compound 140]: the inhibition at 0.1 µM lay within 25 to 49%. `N#Cc1ccc(O[C@H]2CC[C@H](NC(=O)c3cnc(N4CC5CN(CC6CN(c7cc8c(cc7F)C(=O)N(C7CCC(=O)NC7=O)C8=O)C6)CC5C4)cn3)CC2)cc1Cl` (stereo partly drawn) [Compound 159]: the inhibition at 0.1 µM fell in the range of 50 to 79%.

With `N#Cc1ccc(OC2CCC(NC(=O)c3cnc(N4C[C@@H]5CN(C6CCN(c7cc8c(cc7F)C(=O)N(C7CCC(=O)NC7=O)C8=O)CC6)C[C@@H]5C4)nc3)CC2)cc1Cl` (stereo partly drawn) [Compound 220, N-((1s,4S)-4-(3-chloro-4-cyanophenoxy)cyclohexyl)-2-((3aR,6aS)-5-(1-(2-(2,6-dioxopiperidin-3-yl)-6-fluoro-1,3-dioxoisoindolin-5-yl)piperidine-4-yl)hexahydropyrrolo[3,4-c]pyrrol-2(1H)-yl)pyrimidine-5-carboxamide], the “% degradation” value is given as “D (<25%)”.

For the compound `N#Cc1ccc(O[C@H]2CC[C@H](NC(=O)c3cnc(N4C[C@@H]5[C@@H](CN6CCN(c7cc8c(cc7F)C(=O)N(C7CCC(=O)NC7=O)C8=O)CC6)[C@@H]5C4)cn3)CC2)cc1Cl` (stereo partly drawn) [Compound 176, N-((1r,4R)-4-(3-chloro-4-cyanophenoxy)cyclohexyl)-5-((1R,5S,6S)-6-((4-(2-(2,6-dioxopiperidin-3-yl)-6-fluoro-1,3-dioxoisoindolin-5-yl)piperazin-1-yl)methyl)-3-azabicyclo[3.1.0]hexan-3-yl)pyrazine-2-carboxamide], the inhibition at 0.1 µM fell in the range of 50 to 79%.

As for `N#Cc1ccc(O[C@H]2CC[C@H](NC(=O)c3ccc(N4C[C@@H]5[C@@H](CN6CCN(c7ccc8c(c7)C(=O)N(C7CCC(=O)NC7=O)C8=O)CC6)[C@@H]5C4)nn3)CC2)cc1Cl` (stereo partly drawn) [Compound 179, N-((1r,4R)-4-(3-chloro-4-cyanophenoxy)cyclohexyl)-6-((1R,5S,6S)-6-((4-(2-(2,6-dioxopiperidin-3-yl)-1,3-dioxoisoindolin-5-yl)piperazin-1-yl)methyl)-3-azabicyclo[3.1.0]hexan-3-yl)pyridazine-3-formamide], the inhibition at 0.1 µM is 25 to 49%. Consider `N#Cc1ccc(O[C@H]2C[C@@H]3CN(C(=O)c4ccc(N5CCC(CN6CCN(c7ccc8c(c7)C(=O)N(C7CCC(=O)NC7=O)C8=O)CC6)CC5)nn4)C[C@@H]3C2)cc1Cl` (stereo partly drawn) [Compound 175, 2-chloro-4-(((3aR,5s,6aS)-2-(6-(4-((4-(2-(2,6-dioxopiperidin-3-yl)-1,3-dioxoisoindolin-5-yl)piperazin-1-yl)methyl)piperidin-1-yl)pyridazine-3-carbonyl)octahydrocyclopenta[c]pyrrol-5-yl)oxy)benzonitrile], for which the inhibition at 0.1 µM is < 25%. In the case of `N#Cc1ccc(O[C@H]2CC[C@H](NC(=O)c3ccc(N4CCN(CC5C[C@@H]6CN(c7cc8c(cc7F)C(=O)N(C7CCC(=O)NC7=O)C8=O)C[C@@H]6C5)CC4)nn3)CC2)cc1Cl` (stereo partly drawn) [Compound 226], the inhibition at 0.1 µM lay in the range of 50 to 79%. As for `N#Cc1ccc(O[C@H]2CC[C@H](N3Cc4nc(NC5CCN(CC6CCN(c7ccc8c(c7)C(=O)N(C7CCC(=O)NC7=O)C8=O)CC6)CC5)ccc4C3=O)CC2)cc1Cl` (stereo partly drawn) [Compound 172], the inhibition at 0.1 µM was < 25%. Same read-out and setting: the result for `N#Cc1ccc(O[C@H]2CC[C@H](NC(=O)c3ccc(N4CCC(CN5CCC(Nc6cc7c(cc6F)C(=O)N(C6CCC(=O)NC6=O)C7=O)CC5)CC4)nn3)CC2)cc1Cl` (stereo partly drawn) [Compound 139] reads > 80%; that for `N#Cc1ccc(O[C@H]2CC[C@H](NC(=O)c3ccc(N4CCC(O[C@@H]5CCN(c6ccc7c(c6)C(=O)N(C6CCC(=O)NC6=O)C7=O)C5)CC4)cc3)CC2)cc1Cl` (stereo partly drawn) [Compound 111], < 25%. On to `N#Cc1ccc(OC2CCC(NC(=O)c3cnc(N4CCC(NC5CCN(c6cc7c(cc6F)C(=O)N(C6CCC(=O)NC6=O)C7=O)CC5)CC4)cn3)CC2)cc1Cl` (stereo not drawn) [Compound 73, N-((1r,4r)-4-(3-chloro-4-cyanophenoxy)cyclohexyl)-5-(4-((1-(2,6-dioxopiperidin-3-yl-6-fluoro-1,3-dioxoisoindolin-5-yl)piperidine-4-yl)amino)piperidin-1-yl)pyrazine-2-carboxamide], for which the “% degradation” value is “A (>80%)”. `N#Cc1ccc(O[C@H]2CC[C@H](NC(=O)c3cnc(N4C[C@@H]5[C@@H](CN6CCN(c7ccc8c(c7)C(=O)N(C7CCC(=O)NC7=O)C8=O)CC6)[C@@H]5C4)cn3)CC2)cc1Cl` (stereo partly drawn) [Compound 177, N-((1r,4R)-4-(3-chloro-4-cyanophenoxy)cyclohexyl)-5-((1R,5S,6S)-6-((4-(2-(2,6-dioxopiperidin-3-yl)-1,3-dioxoisoindolin-5-yl)piperazin-1-yl)methyl)-3-azabicyclo[3.1.0]hexan-3-yl)pyrazine-2-carboxamide] had an inhibition at 0.1 µM of 50 to 79%. On the same count and under the same terms, the result for `N#Cc1ccc(O[C@H]2CC[C@H](NC(=O)c3ccc(N4CC5CN(CC6CCN(c7ccc8c(c7)C(=O)N(C7CCC(=O)NC7=O)C8=O)CC6)CC5C4)nn3)CC2)cc1Cl` (stereo partly drawn) [Compound 260, N-((1r,4r)-4-(3-chloro-4-cyanophenoxy)cyclohexyl)-6-(5-((1-(2-(2,6-dioxopiperidin-3-yl)-1,3-dioxoisoindolin-5-yl)piperidine-4-yl)methyl)hexahydropyrrolo[3,4-c]pyrrol-2(1Ji)-yl)pyridazine-3-carboxamide] reads > 80%; that for `N#Cc1ccc(O[C@H]2CC[C@H](NC(=O)c3cnc(N4CCC5(CC4)CN(C4CCN(c6cc7c(cc6F)C(=O)N(C6CCC(=O)NC6=O)C7=O)CC4)C5)cn3)CC2)cc1Cl` (stereo partly drawn) [Compound 289], > 80%; that for `N#Cc1ccc(O[C@H]2CC[C@H](NC(=O)c3cnc(N4CCC(CN5CC6CN(c7cc8c(cc7F)C(=O)N(C7CCC(=O)NC7=O)C8=O)CC6C5)CC4)cn3)CC2)cc1Cl` (stereo partly drawn) [Compound 255, N-((1r,4r)-4-(3-chloro-4-cyanophenoxy)cyclohexyl)-5-(4-((5-(2-(2,6-dioxopiperidin-3-yl)-6-fluoro-1,3-dioxoisoindolin-5-yl)Hexahydropyrrolo[3,4-c]pyrrol-2(1H)-yl)methyl)piperidin-1-yl)pyrazine-2-carboxamide], 50 to 79%. The same measure, in the same setting: under `N#Cc1ccc(O[C@H]2C[C@H]3C[C@@H](NC(=O)c4cnc(N5CCC(CN6CCN(c7ccc8c(c7)C(=O)N(C7CCC(=O)NC7=O)C8=O)CC6)CC5)cn4)C[C@H]3C2)cc1Cl` (stereo partly drawn) [Compound 303, N-((2s,3aR,5R,6aS)-5-(3-chloro-4-cyanophenoxy)octahydropenten-2-yl)-5-(4-((4-(2-(2,6-dioxopiperidin-3-yl)-1,3-dioxoisoindolin-5-yl)piperazin-1-yl)methyl)piperidin-1-yl)piperazine-2-carboxamide] stands < 25%; under `N#Cc1ccc(O[C@H]2CC[C@H](NC(=O)c3cnc(N4CC(CN5CC6CN(c7cc8c(cc7F)C(=O)N(C7CCC(=O)NC7=O)C8=O)CC6C5)C4)cn3)CC2)cc1Cl` (stereo partly drawn) [Compound 138], 25 to 49%.
